Data reported in patent publication US10933002B2, “Preservation booster” (DSM IP ASSETS B.V., priority 2017, dated 2021).

System: Escherichia coli
Assay: antimicrobial efficacy in analogy to the regulatory challenge test method (NF EN ISO11930)
Format: cell-based
Conditions: 0.2 wt.-% test solution in physiological serum; 24 h after contamination; 22° C.; initial contamination 580000 cfu/ml
Procedure: The term “antimicrobial activity” (or “antimicrobial effect”) as used herein means a capability of killing and/or inhibiting the growth of pathogenic or unwanted bacteria, such as in particular Escherichia coli (Escherichia coli ATCC 8739). The applied measuring method is NF EN IS011930. The antimicrobial efficacy is assessed in analogy to the regulatory challenge test method (NF EN ISO11930). Thus, solutions of the respective active(s) in ethanol are prepared and further dissolved in physiological serum with 0.85 wt.-% NaCl in the concentrations as outlined in table 1 under sterile conditions. Samples containing phytantriol were solubilized in physiological serum supplemented with 10 wt.-% ethanol, samples containing erythrulose only were solubilized in physiological serum supplemented with 1 wt.-% ethanol. The solutions of the active(s) were deposed in 96-deep well plates (1.6 ml/well). The wells are contaminated with the Escherichia coli at 1.5*10^5 to 1*10^6 cfu/ml to obtain the initial contamination as outlined in table 1. After the contamination, each well was thoroughly mixed to ensure a homogeneous distribution of E. coli. Then each plate was incubated at 22° C. for 24 h. The counting of the (remaining) population is carried out 24 h after contamination.

SMILES	Escherichia coli colony count [cfu/ml]	Log reduction
O=C(CO)[C@H](O)CO (racemic) [erythrulose]	33700	−1.236
CC(C)CCCC(C)CCCC(C)CCCC(C)(O)C(O)CO (stereo not shown) [phytantriol, 3,7,11,15-tetramethyl-1,2,3-hexadecanetriol]	1000	−2.763
